We go through 7 compounds from patent US12310975B2, “Modulators of BCL6 proteolysis and associated methods of use” (Arvinas Operations, Inc., priority 2019, dated 2025).

Assay [1] addresses T1, BCL6 (Homo sapiens (Human), UniProt P41182). Kind of assay: BCL6 TR-FRET assay (BCL6-Avitag-Biotin / BCoR-Cy5 peptide). The assay is classed as binding. The following applies: class symbols A-D; read-out: IC50 (nM)***. The method, boiled down: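 After 30 min room-temperature preincubation of compound titrations with 2 nM biotinylated BCL6-Avitag, 100 nM Cy5-labelled BCoR peptide plus 2 nM Eu-streptavidin were added and TR-FRET read 2 h later. HEPES pH 7.5/125 mM NaCl buffer with Triton X, glutathione (or DTT) and BSA.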
(TR-FRET usually uses a lanthanide donor and a delayed reading to cut background.)

The target of assay [2] is T1, BCL6. Kind of assay: Immunofluorescence high content imaging of BCL6 degradation in T47D cells. The assay is classed as cell-based. The following applies: for Dmax: T47D, maximum, class symbols A-C; for DC50: class symbols A-D, read-out: EC50 (nM)*. The method, boiled down: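 Following a 3-day incubation with serially diluted bifunctional compounds (final top 0.1 or 1 μM), T47D cells were PFA-fixed and immunostained for BCL6. Nuclear BCL6 signal was captured on a high-content imager.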

Where only a bound is given, the exact number is not on record here.

On to `CC(=O)COc1cc2cc(Nc3nc(N4CCC(N(C)C5CCN(c6ccc7c(c6)C(=O)N(C6CCC(=O)NC6=O)C7=O)CC5)CC4)ncc3Cl)ccc2n(C)c1=O` (stereo not drawn) [compound 169, 5-(4-((1-(5-chloro-4-((1-methyl-2-oxo-3-(2-oxopropoxy)-1,2-dihydroquinolin-6-yl)amino)pyrimidin-2-yl)piperidin-4-yl)(methyl)amino)piperidin-1-yl)-2-(2,6-dioxopiperidin-3-yl)isoindoline-1,3-dione], for which the concentration for half-maximal inhibition (IC50) (usually the concentration at which inhibition is half-maximal) on BCL6 [1] lay in the range of 10 to 50 nM. Moreover, at BCL6 [2], the Dmax (as a rule, the largest share of the target that was removed) lay within 50 to 70% and the DC50 was below 10 nM.
On to `CC(=O)COc1cc2cc(Nc3nc(N4CCC(OC5CCN(c6ccc7c(c6)C(=O)N(C6CCC(=O)NC6=O)C7=O)CC5)CC4)ncc3Cl)ccc2n(C)c1=O` (stereo not drawn) [compound 170, 5-(4-((1-(5-chloro-4-((1-methyl-2-oxo-3-(2-oxopropoxy)-1,2-dihydroquinolin-6-yl)amino)pyrimidin-2-yl)piperidin-4-yl)oxy)piperidin-1-yl)-2-(2,6-dioxopiperidin-3-yl)isoindoline-1,3-dione], for which the IC50 on BCL6 [1] lay within 10 to 50 nM. On BCL6 [2], the greatest degradation seen (Dmax) is below 50% and the DC50 was in the range of 50 to 100 nM.
In the same order, the values of `CC(=O)COc1cc2cc(Nc3nc(C#CC4CCN(c5ccc6c(c5)C(=O)N(C5CCC(=O)NC5=O)C6=O)CC4)ncc3Cl)ccc2n(C)c1=O` (stereo not drawn) [compound 171, 5-(4-((5-chloro-4-((1-methyl-2-oxo-3-(2-oxopropoxy)-1,2-dihydroquinolin-6-yl)amino)pyrimidin-2-yl)ethynyl)piperidin-1-yl)-2-(2,6-dioxopiperidin-3-yl)isoindoline-1,3-dione] are 10 to 50 nM, below 50% and 10 to 50 nM.
With `CC(=O)COc1cc2cc(Nc3nc(N4CC(OCCN5CCN(c6ccc7c(c6)C(=O)N(C6CCC(=O)NC6=O)C7=O)CC5)C4)ncc3Cl)ccc2n(C)c1=O` (stereo not drawn) [compound 172, 5-(4-(2-((1-(5-chloro-4-((1-methyl-2-oxo-3-(2-oxopropoxy)-1,2-dihydroquinolin-6-yl)amino)pyrimidin-2-yl)azetidin-3-yl)oxy)ethyl)piperazin-1-yl)-2-(2,6-dioxopiperidin-3-yl)isoindoline-1,3-dione], the half-maximal inhibitory concentration (IC50) at BCL6 [1] was at least 100 nM. Also, at BCL6 [2], the DC50 is above 100 nM.
Take `CC(=O)COc1cc2cc(Nc3nc(C#CC4CCCN(Cc5ccc6c(c5)C(=O)N(C5CCC(=O)NC5=O)C6=O)C4)ncc3Cl)ccc2n(C)c1=O` (stereo not drawn) [compound 173, 5-((3-((5-chloro-4-((1-methyl-2-oxo-3-(2-oxopropoxy)-1,2-dihydroquinolin-6-yl)amino)pyrimidin-2-yl)ethynyl)piperidin-1-yl)methyl)-2-(2,6-dioxopiperidin-3-yl)isoindoline-1,3-dione]: the half-inhibitory concentration (IC50) on BCL6 [1] was at least 100 nM. On BCL6 [2], the Dmax is below 50% and the DC50 lay within 10 to 50 nM.
Consider `CNC(=O)/C=C/c1cc2cc(Nc3nc(N4CCC(CN5CCN(c6ccc7c(c6)C(=O)N(C6CCC(=O)NC6=O)C7=O)CC5)CC4)ncc3Cl)ccc2n(C)c1=O` (stereo not drawn) [compound 174, (E)-3-(6-((5-chloro-2-(4-((4-(2-(2,6-dioxopiperidin-3-yl)-1,3-dioxoisoindolin-5-yl)piperazin-1-yl)methyl)piperidin-1-yl)pyrimidin-4-yl)amino)-1-methyl-2-oxo-1,2-dihydroquinolin-3-yl)-N-methylacrylamide], for which the IC50 at BCL6 [1] lay within 10 to 50 nM. Also, the Dmax on BCL6 [2] fell in the range of 50 to 70%.
The like results for `CC(=O)COc1cc2cc(Nc3nc(N4CCC(CN5CCN(c6ccc7c(c6)CN(C6CCC(=O)NC6=O)C7=O)CC5)CC4)ncc3Cl)ccc2n(C)c1=O` (stereo not drawn) [compound 175, 3-(5-(4-((1-(5-chloro-4-((1-methyl-2-oxo-3-(2-oxopropoxy)-1,2-dihydroquinolin-6-yl)amino)pyrimidin-2-yl)piperidin-4-yl)methyl)piperazin-1-yl)-1-oxoisoindolin-2-yl)piperidine-2,6-dione] were, in that order, below 10 nM and 50 to 70%.
